Columns and labels:
GBM6138 = assay: Antiproliferative activity, MTT assay, GBM6138; type: cell-based; details: low-passage glioblastoma GBM6138, 72 h
GBM5522 = assay: Antiproliferative activity, MTT assay, GBM5522; type: cell-based; details: low-passage glioblastoma GBM5522, 72 h

Compound: CC1(C)Cc2c(C#N)c(SCc3ccccc3Cl)nc(N3CCNCC3)c2CO1 [DO11-42, 6-[(2-Chlorobenzyl)thio]-3,3-dimethyl-8-piperazin-1-yl-3,4-dihydro-1H-pyrano[3,4-c]pyridine-5-carbonitrile]
- IC50 (GBM6138): 51.2 ± 10.7 µM
- IC50 (GBM5522): 4.2 ± 1.3 µM

Compound: COc1cccc(NC(=O)CSc2nc(N3CCNCC3)c3c(c2C#N)CC(C)(C)OC3)c1 [DO11-47, 2-[(5-Cyano-3,3-dimethyl-8-piperazin-1-yl-3,4-dihydro-1H-pyrano[3,4-c]pyridin-6-yl)thio]-N-(3-methoxyphenyl)acetamide]
- IC50 (GBM6138): 104 ± 22.1 µM
- IC50 (GBM5522): 20 ± 6.8 µM

Compound: COc1ccccc1NC(=O)CSc1nc(N2CCNCC2)c2c(c1C#N)CC(C)(C)OC2 [DO11-48, 2-[(5-Cyano-3,3-dimethyl-8-piperazin-1-yl-3,4-dihydro-1H-pyrano[3,4-c]pyridin-6-yl)thio]-N-(2-methoxyphenyl)acetamide]
- IC50 (GBM6138): 27.9 ± 2.6 µM
- IC50 (GBM5522): 3.8 ± 1.5 µM

Compound: CC1(C)Cc2c(C#N)c(SCC(N)=O)nc(N3CCNCC3)c2CO1 [DO11-37, 2-[(5-Cyano-3,3-dimethyl-8-piperazin-1-yl-3,4-dihydro-1H-pyrano[3,4-c]pyridin-6-yl)thio]acetamide]
- IC50 (GBM6138): 571 ± 77.7 µM
- IC50 (GBM5522): 309 ± 63.3 µM

Compound: CNC(=O)c1cc(Oc2ccc(NC(=O)Nc3ccc(Cl)c(C(F)(F)F)c3)cc2)ccn1 [Sorafenib, reference compound]
- IC50 (GBM5522): 84 ± 14 µM

Compound: CC(=O)c1ccc(NC(=O)CSc2nc(N3CCNCC3)c3c(c2C#N)CC(C)(C)OC3)cc1 [DO11-50, N-(4-acetylphenyl)-2-[(5-cyano-3,3-dimethyl-8-piperazin-1-yl-3,4-dihydro-1H-pyrano[3,4-c]pyridin-6-yl)thio]acetamide]
- IC50 (GBM6138): 54.7 ± 28.7 µM
- IC50 (GBM5522): 15.9 ± 4.2 µM
